Reference: US10336739B2, “4-hydroxy-3-(heteroaryl)pyridine-2-one APJ agonists” (BRISTOL-MYERS SQUIBB COMPANY, priority 2015, dated 2019)

These compounds were tested against human APJ receptor (Homo sapiens (Human), UniProt P35414) (assay: Intracellular cAMP accumulation assay (APJ hcAMP, HTRF)). Conditions: HEK293 cells stably expressing human APJ receptor; inhibition of forskolin-mediated cAMP production; read-out: Human APJ cAMP EC50 Potency range.
Type: cell-based
Outline: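 cAMP inhibition was quantified by HTRF against a cAMP standard curve, with EC50 fitted to a variable-slope sigmoidal curve. Compounds acted on 5,000 APJ-stable HEK293 cells for 30 minutes at room temperature alongside 2 μM forskolin and […] IBMX. Detection reagents were incubated 60 min.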

Sequence of human APJ receptor (P35414 whole entry): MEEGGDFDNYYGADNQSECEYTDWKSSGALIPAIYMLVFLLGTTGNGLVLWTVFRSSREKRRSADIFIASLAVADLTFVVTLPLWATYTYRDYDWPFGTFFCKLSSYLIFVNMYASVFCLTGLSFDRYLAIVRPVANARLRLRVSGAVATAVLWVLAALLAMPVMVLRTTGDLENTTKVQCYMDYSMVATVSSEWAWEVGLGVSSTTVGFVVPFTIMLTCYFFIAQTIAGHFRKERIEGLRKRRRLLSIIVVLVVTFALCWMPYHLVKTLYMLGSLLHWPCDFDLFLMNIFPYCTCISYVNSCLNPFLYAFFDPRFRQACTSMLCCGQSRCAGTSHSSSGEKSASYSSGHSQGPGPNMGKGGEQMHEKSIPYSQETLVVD

Question: `CCCCc1nc(O)c(-c2nnc(CNC)o2)c(O)c1-c1c(OC)cccc1OC` [Example 154, 6-butyl-5-(2,6-dimethoxyphenyl)-3-{5-[(methylamino)methyl]-1,3,4-oxadiazol-2-yl}pyridine-2,4-diol] was tested. Which EC50 did it give?
Answer: The EC50 was 10 to 100 nM.

Question: With `CCOCc1nc(O)c(-c2nnc(Cc3ccc(Cl)cc3)o2)c(O)c1-c1c(O)cccc1OC` (single isomer, unassigned) [Example 223, 3-{5-[(4-chlorophenyl)methyl]-1,3,4-oxadiazol-2-yl}-6-(ethoxymethyl)-5-(2-hydroxy-6-methoxyphenyl)pyridine-2,4-diol] as the compound, how does the EC50 read?
Answer: Its EC50 is 10 to 100 nM.

Same assay, conditions: HEK293 cells stably expressing human APJ receptor; inhibition of forskolin-mediated cAMP production; read-out: hAPJ cAMP EC50 (nM) Potency range

Question: For `C#CCNC(=O)Cc1nnc(-c2c(O)nc(CCCC)c(-c3c(OC)cccc3OC)c2O)o1` [Example 262, 2-{5-[6-butyl-5-(2,6-dimethoxyphenyl)-2,4-dihydroxy-pyridin-3-yl]-1,3,4-oxadiazol-2-yl}-N-(prop-2-yn-1-yl)acetamide], which EC50 is on record?
Answer: The EC50 was 0.01 to 10 nM.

Question: For `CCCCc1nc(O)c(-c2nnc(CC(=O)NCc3cc(C(C)C)no3)o2)c(O)c1-c1c(OC)cccc1OC` [Example 272, 2-{5-[6-butyl-5-(2,6-dimethoxyphenyl)-2,4-dihydroxy-pyridin-3-yl]-1,3,4-oxadiazol-2-yl}-N-{[3-(propan-2-yl)-1,2-oxazol-5-yl]methyl} acetamide], which EC50 is on record?
Answer: The EC50 was 0.01 to 10 nM.

Question: With `CCCCc1nc(O)c(-c2nnc(CC(=O)NCc3cccnc3)o2)c(O)c1-c1c(OC)cccc1OC` [Example 255, 2-{5-[6-butyl-5-(2,6-dimethoxyphenyl)-2,4-dihydroxy-pyridin-3-yl]-1,3,4-oxadiazol-2-yl}-N-[(pyridin-3-yl)methyl] acetamide] as the compound, how does the EC50 read?
Answer: Its EC50 is 0.01 to 10 nM.

Question: With `CCOCc1nc(O)c(-c2nnc(CNc3ccccc3)o2)c(O)c1-c1c(OC)cccc1OC` [Example 243, 5-(2,6-dimethoxyphenyl)-6-(ethoxymethyl)-3-{5-[(phenylamino)methyl]-1,3,4-oxadiazol-2-yl}pyridine-2,4-diol] as the compound, how does the EC50 read?
Answer: The EC50 was 10 to 100 nM.

Question: `CCOCc1nc(O)c(-c2nnc(Cc3ccc(Cl)cn3)s2)c(O)c1-c1c(OC)cccc1OC` [Example 232, 3-{5-[(5-chloropyridin-2-yl)methyl]-1,3,4-thiadiazol-2-yl}-5-(2,6-dimethoxyphenyl)-6-(ethoxymethyl) pyridine-2,4-diol] was tested. Which EC50 did it give?
Answer: Its EC50 is 0.01 to 10 nM.

Question: Which EC50 does the source give for `CCCCc1nc(O)c(-c2nnc(CC(=O)NCCc3ccccc3Cl)o2)c(O)c1-c1c(OC)cccc1OC` [Example 258, 2-{5-[6-butyl-5-(2,6-dimethoxyphenyl)-2,4-dihydroxy-pyridin-3-yl]-1,3,4-oxadiazol-2-yl}-N-[2-(2-chlorophenyl)ethyl]acetamide] here?
Answer: The EC50 was 0.01 to 10 nM.

Same assay, conditions: HEK293 cells stably expressing human APJ receptor; inhibition of forskolin-mediated cAMP production; read-out: hAPJ cAMP EC50 Potency range

Question: `CCOCc1nc(O)c(-c2nnc(Cc3ccc(Cl)c(F)c3)o2)c(O)c1-c1c(OC)cccc1OC` [Example 122, 3-{5-[(4-chloro-3-fluorophenyl)methyl]-1,3,4-oxadiazol-2-yl}-5-(2,6-dimethoxyphenyl)-6-(ethoxymethyl) pyridine-2,4-diol] was tested. Which EC50 did it give?
Answer: Its EC50 is 0.01 to 10 nM.

Question: With `CCCCc1nc(O)c(-c2nnc(CNC(C)=O)o2)c(O)c1-c1c(OC)cccc1OC` [Example 175, N-({5-[6-butyl-5-(2,6-dimethoxyphenyl)-2,4-dihydroxypyridin-3-yl]-1,3,4-oxadiazol-2-yl}methyl) acetamide] as the compound, how does the EC50 read?
Answer: Its EC50 is 0.01 to 10 nM.

Question: How did the EC50 turn out when `CCOCc1nc(O)c(-c2nnc(CNC(=O)c3ccccc3)o2)c(O)c1-c1c(OC)cccc1OC` [Example 173, N-({5-[5-(2,6-dimethoxyphenyl)-6-(ethoxymethyl)-2,4-dihydroxypyridin-3-yl]-1,3,4-oxadiazol-2-yl}methyl) benzamide] was run?
Answer: Its EC50 is 0.01 to 10 nM.

Question: With `CCCCc1nc(O)c(-c2nnc(C(OC)c3ccccc3)o2)c(O)c1-c1c(OC)cccc1OC` (centres unmarked) [Example 45, 6-butyl-5-(2,6-dimethoxyphenyl)-3-{5-[methoxy(phenyl)methyl]-1,3,4-oxadiazol-2-yl}pyridine-2,4-diol] as the compound, how does the EC50 read?
Answer: The EC50 was 10 to 100 nM.

Question: How did the EC50 turn out when `CCCCc1nc(O)c(-c2nnc(Cc3cc(C)no3)o2)c(O)c1-c1c(OC)cccc1OC` [Example 51, 6-butyl-5-(2,6-dimethoxyphenyl)-3-{5-[(3-methyl-1,2-oxazol-5-yl)methyl]-1,3,4-oxadiazol-2-yl}pyridine-2,4-diol] was run?
Answer: The EC50 was 0.01 to 10 nM.

Question: How did the EC50 turn out when `CCCCc1nc(O)c(-c2nnc(COc3ccc(F)c(F)c3)o2)c(O)c1-c1c(OC)cccc1OC` [Example 76, 6-butyl-3-[5-(3,4-difluorophenoxy-methyl)-1,3,4-oxadiazol-2-yl]-5-(2,6-dimethoxyphenyl) pyridine-2,4-diol] was run?
Answer: Its EC50 is 10 to 100 nM.

Question: How did the EC50 turn out when `CCCCc1[nH]c(=O)c(-c2nnc(Cc3csc(C)n3)o2)c(O)c1-c1cccc(C2CC2)c1` [Example 150, 6-butyl-5-(3-cyclopropylphenyl)-4-hydroxy-3-{5-[(2-methyl-1,3-thiazol-4-yl)methyl]-1,3,4-oxadiazol-2-yl}-1,2-dihydropyridin-2-one] was run?
Answer: Its EC50 is 0.01 to 10 nM.

Question: How did the EC50 turn out when `CCCCCNC(=O)Cc1nnc(-c2c(O)nc(CCCC)c(-c3c(OC)cccc3OC)c2O)o1` [Example 198, 2-{5-[6-butyl-5-(2,6-dimethoxyphenyl)-2,4-dihydroxypyridin-3-yl]-1,3,4-oxadiazol-2-yl}-N-pentylacetamide] was run?
Answer: Its EC50 is 10 to 100 nM.

Question: Which EC50 does the source give for `CCCCc1nc(O)c(-c2nnc(Cc3nc(-c4ccccn4)no3)o2)c(O)c1-c1c(OC)cccc1OC` [Example 55, 6-butyl-5-(2,6-dimethoxyphenyl)-3-(5-{[3-(pyridin-2-yl)-1,2,4-oxadiazol-5-yl]methyl}-1,3,4-oxadiazol-2-yl)pyridine-2,4-diol] here?
Answer: The EC50 was 0.01 to 10 nM.

Question: With `CCCCc1nc(O)c(-c2nnc(Cc3nnc(-c4ccccc4Cl)o3)o2)c(O)c1-c1c(OC)cccc1OC` [Example 208, 6-butyl-3-(5-{[5-(2-chlorophenyl)-1,3,4-oxadiazol-2-yl]methyl}-1,3,4-oxadiazol-2-yl)-5-(2,6-dimethoxyphenyl) pyridine-2,4-diol] as the compound, how does the EC50 read?
Answer: Its EC50 is 0.01 to 10 nM.

Question: With `CCCCc1nc(O)c(-c2nnc(Cc3ccccc3Cl)o2)c(O)c1-c1c(OC)cccc1OC` [Example 5, 6-butyl-3-{5-[(2-chlorophenyl)methyl]-1,3,4-oxadiazol-2-yl}-5-(2,6-dimethoxyphenyl) pyridine-2,4-diol] as the compound, how does the EC50 read?
Answer: Its EC50 is 10 to 100 nM.

Question: `CCCCc1nc(O)c(-c2nnc(CNC(=O)C(C)(C)C)o2)c(O)c1-c1c(OC)cccc1OC` [Example 167, N-({5-[6-butyl-5-(2,6-dimethoxyphenyl)-2,4-dihydroxypyridin-3-yl]-1,3,4-oxadiazol-2-yl}methyl)-2,2-dimethyl-propanamide] was tested. Which EC50 did it give?
Answer: Its EC50 is 0.01 to 10 nM.

Question: With `CCCCc1nc(O)c(-c2nnc(CNC(=O)COC)o2)c(O)c1-c1c(OC)cccc1OC` [Example 158, N-({5-[6-butyl-5-(2,6-dimethoxyphenyl)-2,4-dihydroxypyridin-3-yl]-1,3,4-oxadiazol-2-yl}methyl)-2-methoxyacetamide] as the compound, how does the EC50 read?
Answer: The EC50 was 0.01 to 10 nM.

Question: For `CCCCc1nc(O)c(-c2nnc(CCc3nc(-c4ccc(OC)cc4)no3)o2)c(O)c1-c1c(OC)cccc1OC` [Example 60, 6-butyl-5-(2,6-dimethoxyphenyl)-3-(5-{2-[3-(4-methoxyphenyl)-1,2,4-oxadiazol-5-yl]ethyl}-1,3,4-oxadiazol-2-yl)pyridine-2,4-diol], which EC50 is on record?
Answer: The EC50 was 10 to 100 nM.

Question: For `CCCCc1nc(O)c(-c2nnc(CN(C)C(=O)c3ccccc3Cl)o2)c(O)c1-c1c(OC)cccc1OC` [Example 161, N-({5-[6-butyl-5-(2,6-dimethoxyphenyl)-2,4-dihydroxypyridin-3-yl]-1,3,4-oxadiazol-2-yl}methyl)-2-chloro-N-methylbenzamide], which EC50 is on record?
Answer: The EC50 was 0.01 to 10 nM.
